Reference: US9849083B2, “Sublingual administration of statins” (LondonPharma Ltd., priority 2011, dated 2017)
Counter-ions that a name gives are not always drawn. Like-named read-outs stand apart in the source and are kept apart here. Each block holds one compound with its values, some of them ahead of it.

Assays:
[1] = human, in vivo; for Tmax (median): male
[2] = Phase 1 pharmacokinetic study of sublingual statin sprays in healthy male subjects; settings: for AUC(0-inf) / AUC(0-t) / Cmax / Tmax: male, human, plasma; for Tmax: Tmax (median); for Tmax / Tmax (median): sublingual spray, healthy male subjects, simvastatin acid measured after simvastatin spray
[3] = Safety and tolerability in phase 1 trial of sublingual statin sprays; type: in vivo, human; settings: all mild; simvastatin AE after 40 mg; fluvastatin with both doses
Method: The secondary objectives of this study were to: • establish the safety, tolerability, local tolerance and taste acceptance of the study medications
Safety was evaluated by adverse event (AE) monitoring, evaluation of any medically significant changes, based on physical examination findings, vital signs, and electrocardiograms (ECGs) assessments, clinical laboratory testing, local tolerance and taste acceptance.
Safety data was summarised by descriptive methods; continuous variables by summary statistics and categorical data by absolute and relative frequencies.

clinical = settings: male, human, in vivo; for Tmax: Tmax (median)
physchem = settings: aqueous with cosolvent or surfactant or cyclodextrin
[4] = Solubility of the statin in formulation carriers; settings: aqueous-based formulation, water
[5] = Chemical stability / compatibility of the statin in formulations; type: physicochemical

SMILES: CCC(C)(C)C(=O)O[C@H]1C[C@@H](C)C=C2C=C[C@H](C)[C@H](CC[C@@H]3C[C@@H](O)CC(=O)O3)[C@H]21 [Simvastatin, simvastatin]
CL/F (mean) ([1]; 20 mg): 744.33 L/h
CL/F (mean) ([1]; 40 mg): 764.67 L/h
Tmax ([2]; 20 mg, 20 mg): 1.88 h
Tmax ([2]; 40 mg, 40 mg): 1.88 h
Treatment-emergent AEs reported [3]: one
Vd/F (clinical; 20 mg): 1980 L
half-life (clinical; 20 mg): 1.8 h
Vd/F (clinical; 40 mg): 2070 L
half-life (clinical; 40 mg): 1.9 h

SMILES: CCC(C)(C)C(=O)O[C@H]1C[C@@H](C)C=C2C=C[C@H](C)[C@H](CC[C@@H](O)C[C@@H](O)CC(=O)O)[C@H]21 [Simvastatin Acid, simvastatin acid]
CL/F (mean) ([1]; 20 mg): 609.03 L/h
CL/F (mean) ([1]; 40 mg): 921.93 L/h
AUC(0-inf) (clinical; 20 mg): 37.7 ng·h/mL
AUC(0-t) (clinical; 20 mg): 21.3 ng·h/mL
Cmax (clinical; 20 mg): 6.1 ng/mL
Vd/F (clinical; 20 mg): 3960 L
half-life (clinical; 20 mg): 5.73 h
Tmax (clinical; 20 mg): 2.19 h
AUC(0-inf) (clinical; 40 mg): 47.6 ng·h/mL
AUC(0-t) (clinical; 40 mg): 32.5 ng·h/mL
Cmax (clinical; 40 mg): 9.88 ng/mL
Vd/F (clinical; 40 mg): 4760 L
half-life (clinical; 40 mg): 3.65 h
Tmax (clinical; 40 mg): 3.88 h

SMILES: CC[C@H](C)C(=O)O[C@H]1C[C@H](O)C=C2C=C[C@H](C)[C@H](CC[C@@H](O)C[C@@H](O)CC(=O)O)[C@H]21 [pravastatin sodium]
solubility [4]: ≥ 150 mg/mL
Reaction with ethanol [5]: react with ethanol

The next lines start with results.

CL/F (mean) ([1]; 20 mg): 685.48 L/h
CL/F (mean) ([1]; 40 mg): 820.32 L/h
AUC(0-inf) ([2]; 20 mg): 31.2 ng·h/mL
AUC(0-t) ([2]; 20 mg): 30 ng·h/mL
Cmax ([2]; 20 mg): 12.3 ng/mL
Tmax ([2]; 20 mg, 20 mg): 1.3 h
AUC(0-inf) ([2]; 40 mg): 80.6 ng·h/mL
AUC(0-t) ([2]; 40 mg): 78.8 ng·h/mL
Cmax ([2]; 40 mg): 44.5 ng/mL
Tmax ([2]; 40 mg, 40 mg): 1.3 h
Tmax (median) ([2]; 20 mg): 1.33 h
Tmax (median) ([2]; 40 mg): 1.29 h
half-life (clinical; 20 mg): 1.58 h
half-life (clinical; 40 mg): 1.32 h
SMILES: CC[C@H](C)C(=O)O[C@H]1C[C@H](O)C=C2C=C[C@H](C)[C@H](CC[C@@H](O)C[C@@H](O)CC(=O)O)[C@H]21 [Pravastatin, pravastatin]
Treatment-emergent AEs reported [3]: none

solubility (physchem): ≥ 25 mg/mL
SMILES: CC(C)n1c(/C=C/C(O)CC(O)CC(=O)O)c(-c2ccc(F)cc2)c2ccccc21 (centres unmarked) [Fluvastatin (sodium salt), fluvastatin sodium]

CL/F (mean) ([1]; 10 mg): 376.22 L/h
CL/F (mean) ([1]; 25 mg): 363.21 L/h
Tmax (median) ([1]; 10 mg): 0.56 h
Tmax (median) ([1]; 25 mg): 0.57 h
AUC(0-inf) (clinical; 10 mg): 37.2 ng·h/mL
AUC(0-t) (clinical; 10 mg): 36.3 ng·h/mL
Cmax (clinical; 10 mg): 34.2 ng/mL
half-life (clinical; 10 mg): 1.18 h
Tmax (clinical; 10 mg): ~0.5 h
AUC(0-inf) (clinical; 25 mg): 91.7 ng·h/mL
AUC(0-t) (clinical; 25 mg): 89.9 ng·h/mL
Cmax (clinical; 25 mg): 88 ng/mL
half-life (clinical; 25 mg): 1.4 h
Tmax (clinical; 25 mg): ~0.5 h
SMILES: CC(C)n1c(/C=C/C(O)CC(O)CC(=O)O)c(-c2ccc(F)cc2)c2ccccc21 (centres unmarked) [Fluvastatin, fluvastatin]
Treatment-emergent AEs reported [3]: 5 related and 2 unrelated
